Target: Dihydroorotate dehydrogenase (quinone), mitochondrial (Homo sapiens, UniProt Q02127)
Sequence (Q02127 whole entry): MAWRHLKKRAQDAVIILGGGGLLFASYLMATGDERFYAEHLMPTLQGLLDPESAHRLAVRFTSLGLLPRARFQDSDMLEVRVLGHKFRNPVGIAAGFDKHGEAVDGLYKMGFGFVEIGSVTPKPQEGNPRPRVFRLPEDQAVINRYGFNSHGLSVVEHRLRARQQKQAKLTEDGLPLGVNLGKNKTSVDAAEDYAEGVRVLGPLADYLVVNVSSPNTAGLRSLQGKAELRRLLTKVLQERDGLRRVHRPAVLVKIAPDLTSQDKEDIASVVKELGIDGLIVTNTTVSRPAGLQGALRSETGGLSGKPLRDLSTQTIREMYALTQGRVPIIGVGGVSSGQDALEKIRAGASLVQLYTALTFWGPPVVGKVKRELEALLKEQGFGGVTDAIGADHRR
Experimental: Briefly, the hDHODH concentration was adjusted in a way that an average slope of approximately 0.2 AU/min served as the positive control (e.g. without inhibitor). The standard assay mixture contained 60 μM 2,6-dichloroindophenol, 50 μM decylubiquinone and 100 μM dihydroorotate. The hDHODH enzyme with or without at least six different concentrations of the compounds was added and measurements were performed in 50 mM TrisHCl, 150 mM KCl and 0.1% Triton X-100 at pH 8.0 and at 30° C. The reaction was started by adding dihydroorotate and measuring the absorption at 600 nm for 2 min. For the determination of the IC50 values, each data point was recorded in triplicate. For the determination of the inhibitory constant Ki, the KM values for DHO and decylubichinon were determined. Afterwards, the compounds were diluted in a dilution series depending on their IC50 values in DMSO.

Row | Structure (SMILES) | Ki [nM]
1 | O=C(Nc1c(F)c(F)c(-c2cccc(OC(F)(F)F)c2)c(F)c1F)c1ccsc1C(=O)O [US20240199535, Example 4] | 3.7
2 | O=C(O)C1=C(C(=O)Nc2ccc(-c3cccc(OC(F)F)c3)cc2F)CCC1 [US20240199535, Example 5] | 1820

Source: BindingDB's records for patent US20240199535 (Immunic, 2024)
